Laboratory results from patent publication US20250206732A1, “COMPOUNDS AND METHODS FOR THE TARGETED DEGRADATION OF KRAS” (Arvinas Operations, Inc., priority 2022, published 2025).

Molecular target: T1, AsPC-1 HiBiT-KRASG12D (Homo sapiens, UniProt P01116, G12D)
T1 construct: insert the HiBiT tag onto the N-terminus of one or more of the endogenous KRAS alleles; endogenous in cells; host or cells: AsPC-1 (ATCC CRL-1682), CRISPR-Cas9 knock-in clone, one tagged allele
Test: HiBiT degradation assay (G12D), AsPC-1 HiBiT-KRASG12D cells
Assay type: cell-based
Details: 24 hours treatment; for DC50: AsPC-1 HiBiT-KRASG12D cells, HiBiT luminescence; for Dmax: ASPC1, AsPC-1 HiBiT-KRASG12D cells, maximum degradation observed
Description: Reagents. […] SW1573 cells are homozygous for the G12C mutation in KRAS, AsPC-1 cells are homozygous for the G12D mutation, and SW620 cells are homozygous for the G12V mutation. […] For degradation assays, 384 well plates were used. Alamar blue was purchased from ThermoFisher scientific (A50101) and used according to manufacturer instructions. The Nano-Glo® HiBiT Lytic Detection System and Nano-Glo® HiBiT Blotting System were purchased from Promega (#N3050 and #N2410) and used according to manufacturer instructions.
To create the AsPC-1 HiBiT-KRASG12D cell line, CRISPR-Cas9 was used to insert the HiBiT tag onto the N-terminus of one or more of the endogenous KRAS alleles. […] After knock-in of the tag, individual clones were isolated by single cell dilution and screened for HiBiT insertion by PCR. […] This clone was used in further studies.
HiBiT degradation assays (G12C and G12D). […] All assays were performed in triplicate. Cells were treated with compounds for 24 hours at 37° C. in an incubator containing 5% CO2. Following treatment, alamar blue was used to determine if any compounds led to a loss in cell viability after 24 hours. The 10× alamar blue reagent was added to a final concentration of 1× as recommended by the manufacturer and cells were returned to the incubator for 4 hours. Plates were then allowed to equilibrate to room temperature and fluorescence was measured using a Perkin-Elmer EnVision. After completion of the fluorescence read, the liquid from each well was removed and the cells were washed with PBS. The Nano-Glo® HiBiT detection reagent was prepared according to the manufacturer's instructions and added to each well after the PBS wash was removed. Following incubation at room temperature for 45 minutes, the luminescence was read using the ultra-sensitive luminescence aperture on the Envision instrument.
Data analysis. Fluorescence values from the alamar blue treatment were normalized to the DMSO-only control for each compound titration.

T1 sequence (P01116 1-188 isoform P01116-2 G12D): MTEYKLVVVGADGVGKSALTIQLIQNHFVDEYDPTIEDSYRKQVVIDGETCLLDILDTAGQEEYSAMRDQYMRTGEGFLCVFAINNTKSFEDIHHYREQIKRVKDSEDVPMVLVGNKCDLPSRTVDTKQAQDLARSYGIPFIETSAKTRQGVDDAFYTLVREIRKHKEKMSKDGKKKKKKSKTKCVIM

Row | Structure (SMILES) | DC50 | Dmax
1 | CCc1cccc2cccc(-c3ncc4c(N5CCCCCC5)nc(OC[C@@]56CCCN5[C@@H](COC(=O)N5CCN(c7cc([C@H](C(=O)N8C[C@H](O)C[C@H]8C(=O)N[C@@H](C)c8ccc(-c9scnc9C)cc8)C(C)C)on7)CC5)CC6)nc4c3F)c12 (relative stereo) [Compound 49] | > 3000 nM | 
2 | Cc1ncsc1-c1ccc([C@H](C)NC(=O)[C@@H]2C[C@@H](O)CN2C(=O)[C@@H](c2cc(N3CCN(C(=O)OC[C@H]4CC[C@]5(COc6nc(N7CC8CCC(C7)N8)c7cnc(-c8cccc9ccc(F)c(F)c89)c(F)c7n6)CCCN45)CC3)no2)C(C)C)cc1 (relative stereo) [Compound 63, [(3R,7aS)-7a-{[(4-{3,8-diazabicyclo[3.2.1]octan-3-yl}-7-(7,8-difluoronaphthalen-1-yl)-8-fluoropyrido[4,3-d]pyrimidin-2-yl)oxy]methyl}-hexahydro-1H-pyrrolizin-3-yl]methyl 4-{5-[(2R*)-1-[(2S,4R)-4-hydroxy-2-{[(1S)-1-[4-(4-methyl-1,3-thiazol-5-yl)phenyl]ethyl]carbamoyl}pyrrolidin-1-yl]-3-methyl-1-oxobutan-2-yl]-1,2-oxazol-3-yl}piperazine-1-carboxylate] | < 600 nM | 20 to 60%
3 | Cc1ncsc1-c1ccc([C@H](C)NC(=O)[C@@H]2C[C@@H](O)CN2C(=O)[C@@H](c2cc(N3CC4(CCN(CCOc5nc(N6CC7CCC(C6)N7)c6cnc(-c7cc(O)cc8ccc(F)c(F)c78)c(F)c6n5)CC4)C3)no2)C(C)C)cc1 (relative stereo) [Compound 68, (2S,4R)-1-[(2R*)-2-[3-(7-{2-[(4-{3,8-diazabicyclo[3.2.1]octan-3-yl}-7-(7,8-difluoro-3-hydroxynaphthalen-1-yl)-8-fluoropyrido[4,3-d]pyrimidin-2-yl)oxy]ethyl}-2,7-diazaspiro[3.5]nonan-2-yl)-1,2-oxazol-5-yl]-3-methylbutanoyl]-4-hydroxy-N-[(1S)-1-[4-(4-methyl-1,3-thiazol-5-yl)phenyl]ethyl]pyrrolidine-2-carboxamide] | < 600 nM | 80 to 100%
4 | CCc1cccc2cc(O)cc(-c3ncc4c(N5CC6CCC(C5)N6)nc(OCCN5CC[C@H]6CN(c7cc([C@H](C(=O)N8C[C@H](O)C[C@H]8C(=O)N[C@@H](C)c8ccc(-c9scnc9C)cc8)C(C)C)on7)C[C@H]6C5)nc4c3F)c12 (relative stereo) [Compound 69, (2S,4R)-1-[(2R*)-2-{3-[(3aR**,7aR***)-5-{2-[(4-{3,8-diazabicyclo[3.2.1]octan-3-yl}-7-(8-ethyl-3-hydroxynaphthalen-1-yl)-8-fluoropyrido[4,3-d]pyrimidin-2-yl)oxy]ethyl}-octahydro-1H-pyrrolo[3,4-c]pyridin-2-yl]-1,2-oxazol-5-yl}-3-methylbutanoyl]-4-hydroxy-N-[(1S)-1-[4-(4-methyl-1,3-thiazol-5-yl)phenyl]ethyl]pyrrolidine-2-carboxamide] | < 600 nM | 80 to 100%
5 | CCc1cccc2cc(O)cc(-c3ncc4c(N5CC6CCC(C5)N6)nc(OCCN5CC[C@H]6CN(c7cc([C@@H](C(=O)N8C[C@H](O)C[C@H]8C(=O)N[C@@H](C)c8ccc(-c9scnc9C)cc8)C(C)C)on7)C[C@H]6C5)nc4c3F)c12 (relative stereo) [Compound 70, (2S,4R)-1-[(2R*)-2-{3-[(3aR**,7aR***)-5-{2-[(4-{3,8-diazabicyclo[3.2.1]octan-3-yl}-7-(8-ethyl-3-hydroxynaphthalen-1-yl)-8-fluoropyrido[4,3-d]pyrimidin-2-yl)oxy]ethyl}-octahydro-1H-pyrrolo[3,4-c]pyridin-2-yl]-1,2-oxazol-5-yl}-3-methylbutanoyl]-4-hydroxy-N-[(1S)-1-[4-(4-methyl-1,3-thiazol-5-yl)phenyl]ethyl]pyrrolidine-2-carboxamide] | > 3000 nM | 
6 | CCc1cccc2cc(O)cc(-c3ncc4c(N5CC6CCC(C5)N6)nc(OCCN5CC[C@@H]6CN(c7cc([C@H](C(=O)N8C[C@H](O)C[C@H]8C(=O)N[C@@H](C)c8ccc(-c9scnc9C)cc8)C(C)C)on7)C[C@@H]6C5)nc4c3F)c12 (relative stereo) [Compound 71, (2S,4R)-1-[(2R*)-2-{3-[(3aR**,7aR***)-5-{2-[(4-{3,8-diazabicyclo[3.2.1]octan-3-yl}-7-(8-ethyl-3-hydroxynaphthalen-1-yl)-8-fluoropyrido[4,3-d]pyrimidin-2-yl)oxy]ethyl}-octahydro-1H-pyrrolo[3,4-c]pyridin-2-yl]-1,2-oxazol-5-yl}-3-methylbutanoyl]-4-hydroxy-N-[(1S)-1-[4-(4-methyl-1,3-thiazol-5-yl)phenyl]ethyl]pyrrolidine-2-carboxamide] | < 600 nM | 80 to 100%
7 | CCc1cccc2cc(O)cc(-c3ncc4c(N5CC6CCC(C5)N6)nc(OCCN5CC[C@@H]6CN(c7cc([C@@H](C(=O)N8C[C@H](O)C[C@H]8C(=O)N[C@@H](C)c8ccc(-c9scnc9C)cc8)C(C)C)on7)C[C@@H]6C5)nc4c3F)c12 (relative stereo) [Compound 72, (2S,4R)-1-[(2R*)-2-{3-[(3aR**,7aR***)-5-{2-[(4-{3,8-diazabicyclo[3.2.1]octan-3-yl}-7-(8-ethyl-3-hydroxynaphthalen-1-yl)-8-fluoropyrido[4,3-d]pyrimidin-2-yl)oxy]ethyl}-octahydro-1H-pyrrolo[3,4-c]pyridin-2-yl]-1,2-oxazol-5-yl}-3-methylbutanoyl]-4-hydroxy-N-[(1S)-1-[4-(4-methyl-1,3-thiazol-5-yl)phenyl]ethyl]pyrrolidine-2-carboxamide] | > 3000 nM | < 20%
8 | CCc1cccc2cc(O)cc(-c3ncc4c(N5CC6CCC(C5)N6)nc(OCCN5CC[C@H]6[C@H](CCN6c6cc([C@H](C(=O)N7C[C@H](O)C[C@H]7C(=O)N[C@@H](C)c7ccc(-c8scnc8C)cc7)C(C)C)on6)C5)nc4c3F)c12 (relative stereo) [Compound 73, (2S,4R)-1-[(2R*)-2-{3-[(3aR**,7aR***)-5-{2-[(4-{3,8-diazabicyclo[3.2.1]octan-3-yl}-7-(8-ethyl-3-hydroxynaphthalen-1-yl)-8-fluoropyrido[4,3-d]pyrimidin-2-yl)oxy]ethyl}-octahydro-1H-pyrrolo[3,2-c]pyridin-1-yl]-1,2-oxazol-5-yl}-3-methylbutanoyl]-4-hydroxy-N-[(1S)-1-[4-(4-methyl-1,3-thiazol-5-yl)phenyl]ethyl]pyrrolidine-2-carboxamide] | < 600 nM | 80 to 100%
9 | CCc1cccc2cc(O)cc(-c3ncc4c(N5CC6CCC(C5)N6)nc(OCCN5CC[C@@H]6[C@@H](CCN6c6cc([C@H](C(=O)N7C[C@H](O)C[C@H]7C(=O)N[C@@H](C)c7ccc(-c8scnc8C)cc7)C(C)C)on6)C5)nc4c3F)c12 (relative stereo) [Compound 74, (2S,4R)-1-[(2R*)-2-{3-[(3aR**,7aR***)-5-{2-[(4-{3,8-diazabicyclo[3.2.1]octan-3-yl}-7-(8-ethyl-3-hydroxynaphthalen-1-yl)-8-fluoropyrido[4,3-d]pyrimidin-2-yl)oxy]ethyl}-octahydro-1H-pyrrolo[3,2-c]pyridin-1-yl]-1,2-oxazol-5-yl}-3-methylbutanoyl]-4-hydroxy-N-[(1S)-1-[4-(4-methyl-1,3-thiazol-5-yl)phenyl]ethyl]pyrrolidine-2-carboxamide] | < 600 nM | 80 to 100%
10 | CCc1cccc2cc(O)cc(-c3ncc4c(N5CC6CCC(C5)N6)nc(OCCN5CC[C@H]6[C@H](CCN6c6cc([C@@H](C(=O)N7C[C@H](O)C[C@H]7C(=O)N[C@@H](C)c7ccc(-c8scnc8C)cc7)C(C)C)on6)C5)nc4c3F)c12 (relative stereo) [Compound 75, (2S,4R)-1-[(2R*)-2-{3-[(3aR**,7aR***)-5-{2-[(4-{3,8-diazabicyclo[3.2.1]octan-3-yl}-7-(8-ethyl-3-hydroxynaphthalen-1-yl)-8-fluoropyrido[4,3-d]pyrimidin-2-yl)oxy]ethyl}-octahydro-1H-pyrrolo[3,2-c]pyridin-1-yl]-1,2-oxazol-5-yl}-3-methylbutanoyl]-4-hydroxy-N-[(1S)-1-[4-(4-methyl-1,3-thiazol-5-yl)phenyl]ethyl]pyrrolidine-2-carboxamide] | 1000 to 3000 nM | 60 to 80%
11 | CCc1cccc2cc(O)cc(-c3ncc4c(N5CC6CCC(C5)N6)nc(OCCN5CC[C@@H]6[C@@H](CCN6c6cc([C@@H](C(=O)N7C[C@H](O)C[C@H]7C(=O)N[C@@H](C)c7ccc(-c8scnc8C)cc7)C(C)C)on6)C5)nc4c3F)c12 (relative stereo) [Compound 76, (2S,4R)-1-[(2R*)-2-{3-[(3aR**,7aR***)-5-{2-[(4-{3,8-diazabicyclo[3.2.1]octan-3-yl}-7-(8-ethyl-3-hydroxynaphthalen-1-yl)-8-fluoropyrido[4,3-d]pyrimidin-2-yl)oxy]ethyl}-octahydro-1H-pyrrolo[3,2-c]pyridin-1-yl]-1,2-oxazol-5-yl}-3-methylbutanoyl]-4-hydroxy-N-[(1S)-1-[4-(4-methyl-1,3-thiazol-5-yl)phenyl]ethyl]pyrrolidine-2-carboxamide] | 1000 to 3000 nM | 20 to 60%
